From ChEMBL document CHEMBL5291721, “A preclinical secondary pharmacology resource illuminates target-adverse drug reaction associations of marketed drugs” (Nat Commun, 2023) come the findings set out here.

Some results are limits rather than exact numbers.

One assay addresses Acetylcholinesterase (Homo sapiens, UniProt P22303). The class given is functional.
The next assay deals with T1, Adenosine receptor A1 (Homo sapiens, UniProt P30542).
T1 sequence (P30542 whole entry): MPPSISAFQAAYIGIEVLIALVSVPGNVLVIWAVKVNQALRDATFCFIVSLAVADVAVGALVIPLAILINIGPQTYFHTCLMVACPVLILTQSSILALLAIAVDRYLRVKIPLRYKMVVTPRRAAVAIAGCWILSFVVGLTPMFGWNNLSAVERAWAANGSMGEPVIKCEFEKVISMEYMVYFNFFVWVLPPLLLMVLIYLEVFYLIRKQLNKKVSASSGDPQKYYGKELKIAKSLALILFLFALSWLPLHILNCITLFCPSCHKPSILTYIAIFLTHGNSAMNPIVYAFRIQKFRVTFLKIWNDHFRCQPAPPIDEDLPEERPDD

Another assay addresses T2, Adenosine receptor A3 (Homo sapiens, UniProt P0DMS8).
T2 sequence (P0DMS8 whole entry): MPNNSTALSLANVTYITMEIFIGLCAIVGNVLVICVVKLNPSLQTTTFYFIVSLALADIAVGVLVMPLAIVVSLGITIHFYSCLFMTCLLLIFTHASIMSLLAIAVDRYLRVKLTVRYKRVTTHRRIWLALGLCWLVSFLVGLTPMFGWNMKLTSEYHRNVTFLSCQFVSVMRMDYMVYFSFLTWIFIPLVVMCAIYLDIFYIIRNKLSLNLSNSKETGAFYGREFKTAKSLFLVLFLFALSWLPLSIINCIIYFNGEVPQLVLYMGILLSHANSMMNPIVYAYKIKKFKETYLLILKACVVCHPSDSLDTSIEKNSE

The next assay addresses T3, Estrogen receptor (Homo sapiens, UniProt P03372).
T3 sequence (P03372 whole entry): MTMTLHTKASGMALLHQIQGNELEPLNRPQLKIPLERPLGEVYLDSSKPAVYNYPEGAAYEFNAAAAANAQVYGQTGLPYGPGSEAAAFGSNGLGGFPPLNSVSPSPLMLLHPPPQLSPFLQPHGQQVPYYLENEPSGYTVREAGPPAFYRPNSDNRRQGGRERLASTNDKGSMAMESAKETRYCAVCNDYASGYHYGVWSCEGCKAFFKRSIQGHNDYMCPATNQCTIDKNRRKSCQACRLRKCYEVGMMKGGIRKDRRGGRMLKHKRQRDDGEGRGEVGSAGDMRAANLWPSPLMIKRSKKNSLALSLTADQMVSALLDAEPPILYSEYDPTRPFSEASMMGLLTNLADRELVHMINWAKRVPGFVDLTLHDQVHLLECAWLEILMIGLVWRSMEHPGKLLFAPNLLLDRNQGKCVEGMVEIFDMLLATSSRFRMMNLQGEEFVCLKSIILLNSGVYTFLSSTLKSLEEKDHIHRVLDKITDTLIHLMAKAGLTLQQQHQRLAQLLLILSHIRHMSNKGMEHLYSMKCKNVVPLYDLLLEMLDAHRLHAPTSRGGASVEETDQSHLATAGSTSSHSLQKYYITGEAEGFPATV

For a further assay, the target named is Prothrombin (Homo sapiens, UniProt P00734). In kind it is functional.
Assay [1] has as its target Vascular endothelial growth factor receptor 2 (Homo sapiens, UniProt P35968). In kind it is functional.
Assay [2] concerns the target cGMP-inhibited 3',5'-cyclic phosphodiesterase 3A (Homo sapiens, UniProt Q14432). In kind it is functional.
The target of assay [3] is 3',5'-cyclic-AMP phosphodiesterase 4A (Homo sapiens, UniProt P27815). The class given is functional.
The target of a further assay is T4, Progesterone receptor (Homo sapiens, UniProt P06401).
T4 sequence (P06401 whole entry): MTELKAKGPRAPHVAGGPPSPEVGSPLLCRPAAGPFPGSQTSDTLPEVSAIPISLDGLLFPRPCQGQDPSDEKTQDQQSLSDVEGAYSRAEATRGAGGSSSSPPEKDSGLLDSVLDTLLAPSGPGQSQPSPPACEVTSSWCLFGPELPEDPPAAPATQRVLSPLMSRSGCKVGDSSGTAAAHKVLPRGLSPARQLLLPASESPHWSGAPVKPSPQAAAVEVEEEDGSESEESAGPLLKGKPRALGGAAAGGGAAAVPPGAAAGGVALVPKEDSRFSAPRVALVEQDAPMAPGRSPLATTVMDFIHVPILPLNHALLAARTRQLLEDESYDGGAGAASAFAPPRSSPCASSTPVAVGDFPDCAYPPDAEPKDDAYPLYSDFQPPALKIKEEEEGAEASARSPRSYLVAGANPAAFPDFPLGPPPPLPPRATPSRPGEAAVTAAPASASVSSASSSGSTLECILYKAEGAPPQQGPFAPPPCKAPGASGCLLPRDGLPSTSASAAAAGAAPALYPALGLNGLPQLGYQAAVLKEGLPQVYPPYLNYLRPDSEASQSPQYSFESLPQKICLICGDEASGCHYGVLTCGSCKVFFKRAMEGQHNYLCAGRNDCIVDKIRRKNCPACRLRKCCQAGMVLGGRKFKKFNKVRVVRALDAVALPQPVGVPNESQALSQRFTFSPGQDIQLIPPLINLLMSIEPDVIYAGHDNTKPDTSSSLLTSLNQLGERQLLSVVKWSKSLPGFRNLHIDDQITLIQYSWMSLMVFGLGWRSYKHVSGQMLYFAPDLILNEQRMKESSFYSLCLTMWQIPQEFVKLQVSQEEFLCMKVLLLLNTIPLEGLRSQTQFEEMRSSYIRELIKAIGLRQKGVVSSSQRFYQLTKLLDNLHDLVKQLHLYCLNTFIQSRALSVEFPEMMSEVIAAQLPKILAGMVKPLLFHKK

For assay [4], the target named is T5, Prostaglandin G/H synthase 1 (Homo sapiens, UniProt P23219). The class given is functional.
For assay [5], the target named is T5, Prostaglandin G/H synthase 1. The class given is functional. This is another data set of the same source.
Assay [6] concerns the target T6, Thromboxane A2 receptor (Homo sapiens, UniProt P21731).
T6 sequence (P21731 whole entry): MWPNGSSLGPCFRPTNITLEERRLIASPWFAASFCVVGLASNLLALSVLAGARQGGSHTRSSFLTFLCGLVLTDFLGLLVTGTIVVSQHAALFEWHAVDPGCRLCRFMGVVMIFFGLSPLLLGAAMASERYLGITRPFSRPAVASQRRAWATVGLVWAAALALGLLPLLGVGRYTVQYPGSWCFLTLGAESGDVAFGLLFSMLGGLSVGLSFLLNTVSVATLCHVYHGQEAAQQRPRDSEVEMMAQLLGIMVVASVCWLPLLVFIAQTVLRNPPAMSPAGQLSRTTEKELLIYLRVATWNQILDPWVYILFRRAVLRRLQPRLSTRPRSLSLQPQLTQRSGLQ
In kind it is functional, cell-based.

For assay [7], the target named is T6, Thromboxane A2 receptor. The class given is functional, cell-based. The source holds these as a separate data set.
Another assay concerns the target T7, D(4) dopamine receptor (Homo sapiens, UniProt P21917).
T7 sequence (P21917 whole entry): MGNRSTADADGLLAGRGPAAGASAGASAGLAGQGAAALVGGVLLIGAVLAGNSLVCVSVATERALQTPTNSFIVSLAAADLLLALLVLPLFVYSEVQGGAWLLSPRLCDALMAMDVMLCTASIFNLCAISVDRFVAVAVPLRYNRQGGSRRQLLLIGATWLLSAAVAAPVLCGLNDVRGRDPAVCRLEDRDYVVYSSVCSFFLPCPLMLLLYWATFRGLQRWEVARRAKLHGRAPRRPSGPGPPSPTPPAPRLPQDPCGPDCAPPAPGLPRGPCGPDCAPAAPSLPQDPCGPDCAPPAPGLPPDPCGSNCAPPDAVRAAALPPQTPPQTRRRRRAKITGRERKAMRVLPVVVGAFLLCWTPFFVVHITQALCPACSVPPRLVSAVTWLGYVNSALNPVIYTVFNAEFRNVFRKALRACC

The target of assay [8] is Voltage-gated inwardly rectifying potassium channel KCNH2 (Homo sapiens, UniProt Q12809). In kind it is functional. The settings on record: read-out: AC50.
Note: assay procedure not described here.

Chain of Acetylcholinesterase (P22303 whole entry): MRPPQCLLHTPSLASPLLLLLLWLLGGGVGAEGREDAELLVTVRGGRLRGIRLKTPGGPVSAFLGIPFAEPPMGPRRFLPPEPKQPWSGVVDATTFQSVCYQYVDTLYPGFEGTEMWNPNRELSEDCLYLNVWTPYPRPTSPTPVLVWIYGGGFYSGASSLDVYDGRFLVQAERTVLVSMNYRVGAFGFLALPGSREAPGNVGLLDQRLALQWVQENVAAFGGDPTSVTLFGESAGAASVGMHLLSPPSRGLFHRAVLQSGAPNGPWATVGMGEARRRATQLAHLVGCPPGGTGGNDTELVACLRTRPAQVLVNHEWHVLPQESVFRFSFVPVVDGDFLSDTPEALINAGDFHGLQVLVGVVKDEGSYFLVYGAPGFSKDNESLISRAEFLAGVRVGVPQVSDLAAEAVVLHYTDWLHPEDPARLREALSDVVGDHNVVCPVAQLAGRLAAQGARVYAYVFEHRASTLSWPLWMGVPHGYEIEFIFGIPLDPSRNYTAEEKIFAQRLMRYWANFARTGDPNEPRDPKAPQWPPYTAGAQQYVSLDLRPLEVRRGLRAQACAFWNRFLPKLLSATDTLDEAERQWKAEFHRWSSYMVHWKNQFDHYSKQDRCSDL
T5 sequence (P23219 whole entry): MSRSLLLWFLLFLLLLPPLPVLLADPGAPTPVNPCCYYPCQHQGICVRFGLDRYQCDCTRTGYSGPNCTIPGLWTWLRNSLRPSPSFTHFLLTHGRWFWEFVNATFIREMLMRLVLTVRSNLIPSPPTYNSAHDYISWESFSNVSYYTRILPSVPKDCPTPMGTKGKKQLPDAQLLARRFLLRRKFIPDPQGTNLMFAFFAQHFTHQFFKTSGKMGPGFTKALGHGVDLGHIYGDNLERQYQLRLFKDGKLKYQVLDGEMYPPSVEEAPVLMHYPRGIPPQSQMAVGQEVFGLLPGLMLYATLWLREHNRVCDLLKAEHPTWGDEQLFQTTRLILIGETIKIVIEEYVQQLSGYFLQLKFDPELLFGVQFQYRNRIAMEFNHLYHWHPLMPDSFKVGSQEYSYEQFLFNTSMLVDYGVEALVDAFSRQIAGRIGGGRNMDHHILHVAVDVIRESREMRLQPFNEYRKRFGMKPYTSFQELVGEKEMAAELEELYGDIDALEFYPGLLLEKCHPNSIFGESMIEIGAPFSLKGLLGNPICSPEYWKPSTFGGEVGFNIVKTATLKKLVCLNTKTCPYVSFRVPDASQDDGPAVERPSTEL
Chain of Voltage-gated inwardly rectifying potassium channel KCNH2 (Q12809 whole entry): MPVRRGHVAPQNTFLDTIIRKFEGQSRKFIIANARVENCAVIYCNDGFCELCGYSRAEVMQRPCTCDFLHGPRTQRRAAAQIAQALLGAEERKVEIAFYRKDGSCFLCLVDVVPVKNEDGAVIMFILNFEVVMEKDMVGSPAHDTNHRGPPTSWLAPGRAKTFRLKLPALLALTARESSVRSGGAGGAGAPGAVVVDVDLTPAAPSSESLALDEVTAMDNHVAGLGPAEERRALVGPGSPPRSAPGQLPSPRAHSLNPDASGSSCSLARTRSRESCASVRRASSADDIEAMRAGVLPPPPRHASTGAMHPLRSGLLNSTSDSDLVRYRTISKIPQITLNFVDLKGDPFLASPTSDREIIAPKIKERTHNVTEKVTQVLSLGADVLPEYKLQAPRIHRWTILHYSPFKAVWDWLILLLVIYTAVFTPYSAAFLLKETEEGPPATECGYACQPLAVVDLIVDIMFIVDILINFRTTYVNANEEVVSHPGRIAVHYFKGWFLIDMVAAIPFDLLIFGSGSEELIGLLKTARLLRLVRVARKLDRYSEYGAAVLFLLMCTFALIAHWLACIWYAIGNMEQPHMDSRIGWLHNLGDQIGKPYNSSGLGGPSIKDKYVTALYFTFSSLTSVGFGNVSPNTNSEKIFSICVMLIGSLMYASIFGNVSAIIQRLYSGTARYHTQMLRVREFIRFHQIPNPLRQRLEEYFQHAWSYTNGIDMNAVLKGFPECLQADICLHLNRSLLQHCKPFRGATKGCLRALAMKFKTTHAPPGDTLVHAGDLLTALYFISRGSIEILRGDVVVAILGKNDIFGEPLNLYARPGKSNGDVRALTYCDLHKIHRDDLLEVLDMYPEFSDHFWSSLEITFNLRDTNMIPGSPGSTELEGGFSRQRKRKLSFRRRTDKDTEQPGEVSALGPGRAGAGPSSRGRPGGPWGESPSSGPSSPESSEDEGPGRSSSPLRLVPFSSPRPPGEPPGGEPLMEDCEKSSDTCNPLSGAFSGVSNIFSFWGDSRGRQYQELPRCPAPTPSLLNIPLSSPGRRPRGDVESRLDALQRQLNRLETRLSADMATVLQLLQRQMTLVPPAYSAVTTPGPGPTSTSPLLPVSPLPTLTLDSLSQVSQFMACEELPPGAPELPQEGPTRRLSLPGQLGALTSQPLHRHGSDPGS
Chain of Vascular endothelial growth factor receptor 2 (P35968 whole entry): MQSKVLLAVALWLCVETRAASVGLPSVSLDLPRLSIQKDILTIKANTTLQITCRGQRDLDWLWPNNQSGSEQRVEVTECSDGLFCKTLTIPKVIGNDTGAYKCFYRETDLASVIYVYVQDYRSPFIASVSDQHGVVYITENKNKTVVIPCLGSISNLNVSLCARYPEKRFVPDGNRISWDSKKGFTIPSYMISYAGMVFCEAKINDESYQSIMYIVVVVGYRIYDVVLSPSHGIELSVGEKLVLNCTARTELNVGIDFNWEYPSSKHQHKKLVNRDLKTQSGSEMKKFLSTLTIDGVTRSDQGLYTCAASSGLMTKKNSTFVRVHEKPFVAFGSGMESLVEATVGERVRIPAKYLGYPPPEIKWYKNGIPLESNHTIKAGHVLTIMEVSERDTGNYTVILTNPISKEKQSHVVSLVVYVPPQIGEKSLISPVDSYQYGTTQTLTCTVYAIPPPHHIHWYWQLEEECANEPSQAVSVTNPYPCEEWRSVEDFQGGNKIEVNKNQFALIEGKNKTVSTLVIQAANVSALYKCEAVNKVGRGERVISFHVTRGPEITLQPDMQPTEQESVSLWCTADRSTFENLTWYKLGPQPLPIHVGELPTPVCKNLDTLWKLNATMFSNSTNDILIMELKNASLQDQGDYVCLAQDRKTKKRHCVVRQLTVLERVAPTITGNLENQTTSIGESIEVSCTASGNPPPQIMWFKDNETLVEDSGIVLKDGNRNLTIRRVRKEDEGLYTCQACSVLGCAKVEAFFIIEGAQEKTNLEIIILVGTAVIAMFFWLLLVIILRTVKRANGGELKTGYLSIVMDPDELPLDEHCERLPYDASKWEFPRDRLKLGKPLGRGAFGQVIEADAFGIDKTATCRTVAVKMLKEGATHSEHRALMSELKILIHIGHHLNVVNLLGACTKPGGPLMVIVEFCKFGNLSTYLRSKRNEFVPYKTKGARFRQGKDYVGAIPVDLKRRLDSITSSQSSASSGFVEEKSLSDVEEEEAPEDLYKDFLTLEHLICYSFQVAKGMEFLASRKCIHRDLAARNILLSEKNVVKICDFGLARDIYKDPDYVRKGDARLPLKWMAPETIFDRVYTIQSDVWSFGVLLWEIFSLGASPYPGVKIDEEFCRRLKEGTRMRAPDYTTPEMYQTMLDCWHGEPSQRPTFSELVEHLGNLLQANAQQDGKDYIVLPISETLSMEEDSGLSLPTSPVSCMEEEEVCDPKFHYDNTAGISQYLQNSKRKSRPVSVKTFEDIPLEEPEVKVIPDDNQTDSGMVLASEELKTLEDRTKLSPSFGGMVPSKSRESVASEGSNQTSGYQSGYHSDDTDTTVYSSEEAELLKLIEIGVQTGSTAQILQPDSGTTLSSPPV
Chain of 3',5'-cyclic-AMP phosphodiesterase 4A (P27815 whole entry): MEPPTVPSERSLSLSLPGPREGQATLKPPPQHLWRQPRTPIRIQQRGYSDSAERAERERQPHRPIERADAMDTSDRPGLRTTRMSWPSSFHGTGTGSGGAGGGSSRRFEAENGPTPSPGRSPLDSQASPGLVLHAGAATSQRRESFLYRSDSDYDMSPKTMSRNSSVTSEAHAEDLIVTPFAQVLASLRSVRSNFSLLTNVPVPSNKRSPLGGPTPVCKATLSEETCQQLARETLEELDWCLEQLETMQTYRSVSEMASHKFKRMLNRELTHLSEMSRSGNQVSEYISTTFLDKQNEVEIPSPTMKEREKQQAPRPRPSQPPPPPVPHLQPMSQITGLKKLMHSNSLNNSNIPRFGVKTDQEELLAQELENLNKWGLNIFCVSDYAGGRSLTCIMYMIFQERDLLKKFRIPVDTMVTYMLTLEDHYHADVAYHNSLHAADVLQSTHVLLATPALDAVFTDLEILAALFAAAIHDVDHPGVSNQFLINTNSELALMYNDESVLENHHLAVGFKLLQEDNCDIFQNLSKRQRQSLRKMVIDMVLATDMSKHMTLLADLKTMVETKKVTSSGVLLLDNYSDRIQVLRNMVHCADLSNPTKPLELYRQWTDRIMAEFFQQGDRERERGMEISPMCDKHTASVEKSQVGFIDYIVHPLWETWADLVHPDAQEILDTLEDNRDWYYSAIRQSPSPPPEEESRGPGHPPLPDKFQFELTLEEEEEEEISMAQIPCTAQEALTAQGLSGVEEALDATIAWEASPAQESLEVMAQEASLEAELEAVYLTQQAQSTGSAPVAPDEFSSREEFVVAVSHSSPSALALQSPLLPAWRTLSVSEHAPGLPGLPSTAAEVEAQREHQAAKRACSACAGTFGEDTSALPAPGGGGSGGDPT

Regarding `C=CC[C@]1(O)CC[C@H]2[C@@H]3CCC4=CCCC[C@@H]4[C@H]3CC[C@@]21C` [ALLYLESTRENOL], the AC50 on Acetylcholinesterase is over 30 µM; at Adenosine receptor A1, over 30 µM; at Adenosine receptor A3, 3.91 µM; on Estrogen receptor, 0.331 µM; on Prothrombin, over 30 µM; in assay [1], over 30 µM. For the same compound, the AC50 was over 30 µM in assay [2]; over 30 µM in assay [3]; 0.0039 µM at Progesterone receptor; 25.5 µM in assay [4]; over 30 µM in assay [5]; over 30 µM on Thromboxane A2 receptor [6]. In addition, the AC50 on Thromboxane A2 receptor [7] is over 30 µM.

As for `COC(=O)[C@@H]1[C@H]2C[C@H]3c4[nH]c5ccccc5c4CCN3C[C@@H]2CC[C@@H]1O` [YOHIMBINE], the AC50 at Acetylcholinesterase was over 0.3 µM; at D(4) dopamine receptor it was over 10 µM; in assay [8] it was 29.1 µM.
